# From patent US9526785B2, “Pharmaceuticals for oral delivery” (Enteris BioPharma, Inc., priority 2013, dated 2016)
# Like-named read-outs stand apart in the source and are kept apart here.
# Assay: Tigecycline plasma PK and % F after intraduodenal (ID) injection in anesthetized rats
# Assay type: in vivo, Sprague-Dawley Rats
# Details: for AUC(0-t) / Tmax / bioavailability / Cmax: female, Sprague-Dawley, rat, plasma; for bioavailability: read-out: % F, mean
# Protocol: Animals weighed approximately 250 g at the time of testing. Rats were fasted overnight (with water available), prior to dosing.
# Intravenous (IV) doses were administered as a bolus injection into the left carotid […] at a dose volume of 1.6 mL/kg. Intraduodenal doses were administered as bolus injections into the duodenum at a dose volume of 1.2 mL/kg.
# An additional study was conducted exploring the effect of formulation pH at constant CA and LLC concentrations (RA867).
# Female rats were maintained in groups of 3 per polycarbonate (or equivalent) shoebox cage with fresh wood chip bedding at 20-22° C. under a 12 hour on/off light:dark cycle. […] After the rats went limp they were injected intraperitoneally (IP) with 0.1 mL ketamine/xylazine. The anesthetic state was maintained by IP injection of ketamine/xylazine on an as needed basis. Animal weights were determined post-anesthesia induction.
# An indwelling catheter for blood sampling was inserted into the right carotid artery by exposing the trachea with Mayo scissors, clamping the bottom of the […] and tying off the top with surgical suture. The area between was nicked with small sharp scissors and Intramedic polyethylene tubing was inserted into the nicked area. The artery with the tubing was sealed with suture to prevent leakage. A 23-gauge Intramedic Luer Stub Adapter was inserted into the cannula and attached to a 3 way valve which was connected to a 3 cc syringe filled with 0.9% normal saline and a 1 cc syringe filled with 5 U/mL sodium heparin for blood sampling.
# An intraduodenal injection was utilized to mimic oral delivery of an enterically coated capsule or tablet formulation. […] Mayo scissors were used to expose the duodenum and the site of administration was identified by measuring 5 cm from the junction of the stomach and the duodenum towards the jejunum. The measured site was identified by inserting a small piece of surgical suture underneath the site for injection. After the formulation was injected, the abdominal cavity was closed with surgical clips.
# Blood samples were collected in tubes containing 20 μL 180 mM EDTA. The tubes were maintained on ice and then centrifuged at approximately 3000 rpm at 4° C. for 5 minutes. Plasma was harvested immediately after centrifugation of the samples and stored at −20° C. pending analysis.
# Minocycline (VWR international) was used as an internal standard. Sample processing/clean-up of plasma samples was carried out offline by protein precipitation with acidified acetonitrile.
# The HPLC system consisted of Shimadzu SIL-HTc HPLC system equipped with dual Shimadzu LC-10ADvp isopumps, a Shimadzu CTO-10ASvp column temperature controller and a Shimadzu SPD-10Avp variable wavelength detector. […] Mobile phase A consisted of 23 mM phosphate buffer pH 2.5 with 6 mM 1-octanesulfonic acid, while mobile phase B consisting of pure acetonitrile. […] The mobile phase flow rate was 1.2 mL/min. Detection was performed using the SPD-10Avp variable wavelength detector set at 350 nm, with a sensitivity of 0.001 aufs.
# The samples were then centrifuged under refrigeration at 13 k rpm for 30 minutes. The supernatant was taken and the liquid was removed to dryness in a turbovap. The samples were then reconstituted in 55 μL 0.1M phosphate buffer, pH 3.8. Samples were maintained at 10° C. while on the autoinjector during sequence. The injection volume was 50 μL. The unknown concentration in rat plasma samples was determined by interpolation of the peak area ratios of analyte:internal standard versus the ratio of their nominal concentrations into the regression line obtained from calibration standards spiked in pooled rat plasma. No regression weighting was used for the calculations. […] The calibration curve covered the range of 0.05 μg/mL to 5.0 μg/mL.
# [1] = ID, 400 mM CA (pH 3.5), 26 mM LLC, 4.8 mg/kg (RA851), parent Tigecycline peak only, 4.8 mg/kg
# [2] = ID, 400 mM CA (pH 3.5), 26 mM LLC, 9.0 mg/kg (RA853), parent Tigecycline peak only, 9 mg/kg
# [3] = 4.6 mg/kg, RA861, ID, 26 mM LLC alone, mean dose 4.6 mg/kg
# [4] = 4.6 mg/kg, RA861, ID, 400 mM CA/26 mM LLC, mean dose 4.6 mg/kg
# [5] = 4.8 mg/kg, ID, PBS, 4.8 mg/kg (RA851)
# [6] = 4.8 mg/kg, RA861, ID, 400 mM CA alone, mean dose 4.8 mg/kg
# [7] = 4.8 mg/kg, pH 3.5, ID, 100 mM CA (pH 3.5), 26 mM LLC, 4.8 mg/kg (RA851)
# [8] = 4.8 mg/kg, pH 3.5, ID, 400 mM CA (pH 3.5), 26 mM LLC, 4.8 mg/kg (RA851), parent Tigecycline peak only
# [9] = 4.8 mg/kg, pH 3.5, RA867, ID, 400 mM CA/26 mM LLC pH 3.5, 4.8 mg/kg
# [10] = 4.8 mg/kg, pH 6, RA867, ID, 400 mM CA/26 mM LLC pH 6.0, 4.8 mg/kg
# [11] = 9 mg/kg, ID, PBS, 9.0 mg/kg (RA853), without animal RA853-6
# [12] = 9 mg/kg, pH 3.5, ID, 100 mM CA (pH 3.5), 26 mM LLC, 9.0 mg/kg (RA853)
# [13] = 9 mg/kg, pH 3.5, ID, 400 mM CA (pH 3.5), 26 mM LLC, 9.0 mg/kg (RA853), parent Tigecycline peak only
smiles,measurement,setting,value
CN(C)c1cc(NC(=O)CNC(C)(C)C)c(O)c2c1C[C@H]1C[C@H]3[C@H](N(C)C)C(O)=C(C(N)=O)C(=O)[C@@]3(O)C(O)=C1C2=O [Tigecycline],increase of tigecycline plasma concentrations,"ID, 26 mM LLC and 100 mM citrate pH 3.5, versus PBS",7-9 x
same,"Cmax, Mean","ID, 100 mM CA (pH 3.5), 26 mM LLC, 4.8 mg/kg (RA851), 4.8 mg/kg",714 ng/mL
same,"% F, Mean","ID, 100 mM CA (pH 3.5), 26 mM LLC, 4.8 mg/kg (RA851), relative to 0.64 mg/kg IV",10.85%
same,"Tmax, Mean","ID, 100 mM CA (pH 3.5), 26 mM LLC, 9.0 mg/kg (RA853), 9 mg/kg",16.667 min
same,"% F, Mean","ID, 100 mM CA (pH 3.5), 26 mM LLC, 9.0 mg/kg (RA853), relative to 12 mg/kg IV",11.36%
same,increase of mean % F,"ID, 100 mM CA pH 3.5, 26 mM LLC, versus PBS",4-7 fold
same,"Cmax, Mean",[1],792 ng/mL
same,"Tmax, Mean",[1],16.7 min
same,"AUC(0-t), Mean",[2],137.6 µg·min/mL
same,"Cmax, Mean",[2],2492 ng/mL
same,"AUC(0-t), Mean","ID, PBS, 9.0 mg/kg (RA853), without animal RA853-6, 9 mg/kg",15.7 µg·min/mL
same,"% F, Mean","ID, PBS, 9.0 mg/kg (RA853), without animal RA853-6, relative to 12 mg/kg IV",2.76%
same,AUC(0-t),[3],68 ng·h/mL
same,Tmax,[3],18 min
same,bioavailability,[3],1%
same,Cmax,"4.6 mg/kg, RA861, ID, 26 mM LLC alone, mean dose 4.6 mg/kg, read-out: Cmax, mean",64.1 ng/mL
same,AUC(0-t),[4],139 ng·h/mL
same,Tmax,[4],10 min
same,bioavailability,[4],2.1%
same,Cmax,"4.6 mg/kg, RA861, ID, 400 mM CA/26 mM LLC, mean dose 4.6 mg/kg, read-out: Cmax, mean",30.6 ng/mL
same,AUC(0-t),[5],116 ng·h/mL
same,Tmax,[5],90 min
same,Cmax,"4.8 mg/kg, ID, PBS, 4.8 mg/kg (RA851), read-out: Cmax, Mean",100 ng/mL
same,AUC(0-t),[6],17.5 ng·h/mL
same,Tmax,[6],20 min
same,bioavailability,[6],0.3%
same,Cmax,"4.8 mg/kg, RA861, ID, 400 mM CA alone, mean dose 4.8 mg/kg, read-out: Cmax, mean",11.7 ng/mL
same,AUC(0-t),[7],823 ng·h/mL
same,Tmax,[7],20 min
same,Cmax,"4.8 mg/kg, pH 3.5, ID, 100 mM CA (pH 3.5), 26 mM LLC, 4.8 mg/kg (RA851), read-out: Cmax, Mean",710 ng/mL
same,AUC(0-t),[8],1430 ng·h/mL
same,Tmax,[8],17 min
same,Cmax,"4.8 mg/kg, pH 3.5, ID, 400 mM CA (pH 3.5), 26 mM LLC, 4.8 mg/kg (RA851), parent Tigecycline peak only, read-out: Cmax, Mean",790 ng/mL
same,AUC(0-t),[9],537 ng·h/mL
same,Tmax,[9],12 min
same,bioavailability,[9],7.7%
same,Cmax,"4.8 mg/kg, pH 3.5, RA867, ID, 400 mM CA/26 mM LLC pH 3.5, 4.8 mg/kg, read-out: Cmax, mean",488 ng/mL
same,AUC(0-t),[10],385 ng·h/mL
same,Tmax,[10],43 min
same,bioavailability,[10],5.5%
same,Cmax,"4.8 mg/kg, pH 6, RA867, ID, 400 mM CA/26 mM LLC pH 6.0, 4.8 mg/kg, read-out: Cmax, mean",278 ng/mL
same,AUC(0-t),[11],262 ng·h/mL
same,Tmax,[11],30 min
same,Cmax,"9 mg/kg, ID, PBS, 9.0 mg/kg (RA853), without animal RA853-6, read-out: Cmax, Mean",220 ng/mL
same,AUC(0-t),[12],1280 ng·h/mL
same,Tmax,[12],17 min
same,Cmax,"9 mg/kg, pH 3.5, ID, 100 mM CA (pH 3.5), 26 mM LLC, 9.0 mg/kg (RA853), read-out: Cmax, Mean",2060 ng/mL
same,AUC(0-t),[13],2300 ng·h/mL
same,Tmax,[13],10 min
same,Cmax,"9 mg/kg, pH 3.5, ID, 400 mM CA (pH 3.5), 26 mM LLC, 9.0 mg/kg (RA853), parent Tigecycline peak only, read-out: Cmax, Mean",2490 ng/mL
same,AUC(0-t),"[…], RA869, ID, 26 mM LLC only",91.7 ng·h/mL
same,Tmax,"[…], RA869, ID, 26 mM LLC only",10 min
same,bioavailability,"[…], RA869, ID, 26 mM LLC only, […]",8.9%
